Source: patent US20230416275A1, “MODULATORS OF CYSTIC FIBROSIS TRANSMEMBRANE CONDUCTANCE REGULATOR” (VERTEX PHARMACEUTICALS INCORPORATED, priority 2020, published 2023)
pEC50: −log10 of the molar value.

How the values were obtained:
F508del in NIH 3T3 cells = biological target: T1, F508del in NIH 3T3 cells (Homo sapiens, UniProt P13569, DEL508-508); experiment: 3T3 assay: membrane potential optical assay for F508del correction; format: cell-based, mouse; settings: for pEC50: F508del NIH 3T3 cells, compound incubation 18-24 hours at 37° C., forskolin activation, read-out: 3T3 EC50; for Emax: NIH3T3, F508del NIH 3T3 cells, efficacy compared to lumacaftor in combination with acutely added 300 nM Ivacaftor, read-out: 3T3 Max Activity (%)
T1 construct: expressed in transfected cells
T1 sequence (P13569 with tags, fused parts or gaps DEL508-508): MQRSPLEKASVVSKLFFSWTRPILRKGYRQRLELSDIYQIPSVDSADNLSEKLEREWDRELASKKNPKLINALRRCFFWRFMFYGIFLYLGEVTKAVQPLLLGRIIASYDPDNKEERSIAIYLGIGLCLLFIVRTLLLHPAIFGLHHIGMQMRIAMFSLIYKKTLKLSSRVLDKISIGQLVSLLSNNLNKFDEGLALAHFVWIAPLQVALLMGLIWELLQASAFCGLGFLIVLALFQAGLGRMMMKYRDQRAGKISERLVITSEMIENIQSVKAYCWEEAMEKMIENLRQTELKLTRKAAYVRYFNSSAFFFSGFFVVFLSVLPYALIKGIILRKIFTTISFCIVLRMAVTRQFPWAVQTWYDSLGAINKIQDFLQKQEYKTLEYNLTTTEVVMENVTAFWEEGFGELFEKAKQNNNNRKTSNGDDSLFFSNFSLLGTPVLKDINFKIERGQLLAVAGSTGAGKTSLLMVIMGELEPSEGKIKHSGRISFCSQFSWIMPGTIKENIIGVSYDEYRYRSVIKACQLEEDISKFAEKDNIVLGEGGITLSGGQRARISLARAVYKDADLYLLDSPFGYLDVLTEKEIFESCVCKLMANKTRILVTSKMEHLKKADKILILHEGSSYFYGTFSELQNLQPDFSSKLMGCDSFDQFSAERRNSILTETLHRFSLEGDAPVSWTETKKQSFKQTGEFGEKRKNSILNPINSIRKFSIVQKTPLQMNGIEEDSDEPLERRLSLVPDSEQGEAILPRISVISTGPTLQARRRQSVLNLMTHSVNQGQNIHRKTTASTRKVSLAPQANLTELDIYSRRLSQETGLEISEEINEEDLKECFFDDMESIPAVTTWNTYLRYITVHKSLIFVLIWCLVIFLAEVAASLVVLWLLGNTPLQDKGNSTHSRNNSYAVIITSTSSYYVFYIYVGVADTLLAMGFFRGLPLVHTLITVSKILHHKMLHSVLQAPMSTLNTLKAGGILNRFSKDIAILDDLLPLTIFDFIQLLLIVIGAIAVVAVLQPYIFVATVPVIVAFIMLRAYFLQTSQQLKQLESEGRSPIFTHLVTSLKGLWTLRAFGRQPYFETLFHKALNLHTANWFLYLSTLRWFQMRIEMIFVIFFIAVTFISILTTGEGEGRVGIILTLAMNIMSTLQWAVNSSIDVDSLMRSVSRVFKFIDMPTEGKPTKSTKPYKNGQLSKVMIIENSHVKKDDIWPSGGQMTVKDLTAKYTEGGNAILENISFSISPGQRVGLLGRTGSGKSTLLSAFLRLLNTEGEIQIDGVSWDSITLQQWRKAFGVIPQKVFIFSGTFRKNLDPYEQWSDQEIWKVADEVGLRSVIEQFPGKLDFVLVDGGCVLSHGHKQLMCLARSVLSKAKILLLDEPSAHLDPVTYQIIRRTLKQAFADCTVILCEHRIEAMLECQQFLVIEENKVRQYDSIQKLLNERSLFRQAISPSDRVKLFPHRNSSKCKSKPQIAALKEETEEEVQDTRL
Source text: a. Membrane Potential Optical Methods for Assaying F508del Modulation Properties of Compounds
The assay utilizes fluorescent voltage sensing dyes to measure changes in membrane potential using a fluorescent plate reader (e.g., FLIPR III, Molecular Devices, Inc.) as a readout for increase in functional F508del in NIH 3T3 cells. The driving force for the response is the creation of a chloride ion gradient in conjunction with channel activation by a single liquid addition step after the cells have previously been treated with compounds and subsequently loaded with a voltage sensing dye.
b. Identification of Corrector Compounds
To identify correctors of F508del, a single-addition HTS assay format was developed. This HTS assay utilizes fluorescent voltage sensing dyes to measure changes in membrane potential on the FLIPR III as a measurement for increase in gating (conductance) of F508del in F508del NIH 3T3 cells. The F508del NIH 3T3 cell cultures were incubated with the corrector compounds at a range of concentrations for 18-24 hours at 37° C., and subsequently loaded with a redistribution dye. The driving force for the response is a Cl^− ion gradient in conjunction with channel activation with forskolin in a single liquid addition step using a fluorescent plate reader such as FLIPR III.
Bath Solution #1: (in mM) NaCl 160, KCl 4.5, CaCl2 2, MgCl2 1, HEPES 10, pH 7.4 with NaOH.
Chloride-free bath solution: Chloride salts in Bath Solution #1 (above) are substituted with gluconate salts.
NIH3T3 mouse fibroblasts stably expressing F508del are used for optical measurements of membrane potential. The cells are maintained at 37° C. in 5% CO2 and 90% humidity in Dulbecco's modified Eagle's medium supplemented with 2 mM glutamine, 10% fetal bovine serum, 1×NEAA, b-ME, 1× pen/strep, and 25 mM HEPES in 175 cm^2 culture flasks. For all optical assays, the cells were seeded at ˜20,000/well in 384-well Matrigel-coated plates. For the correction assays, the cells are cultured at 37° C. with and without compounds for 16-24 hours.

[1] = biological target: CFTR-mediated chloride transport in human intestinal epithelial enteroid cells (Homo sapiens, UniProt P13569); experiment: Membrane potential dye, Enteroid Assay A; format: cell-based; settings: for Ent. A Max Activity (%): % of chloride transport of triple combination control (3 μM N-[(6-amino-2-pyridyl)sulfonyl]-6-(3-fluoro-5-isobutoxy-phenyl)-2-[(4S)-2,2,4-trimethylpyrrolidin-1-yl]pyridine-3-carboxamide, 3 μM tezacaftor, 300 nM acute ivacaftor); for pEC50: enteroid cells, 18-24 hours incubation, acute 10 μM forskolin and 300 nM ivacaftor, read-out: Ent. A EC50
CFTR-mediated chloride transport in human intestinal epithelial enteroid cells, sequence (P13569 with tags, fused parts or gaps DEL508-508): as above
Procedure: Base medium (ADF+++) consisted of Advanced DMEM/Ham's F12, 2 mM Glutamax, 10 mM HEPES, […] penicillin/streptomycin.
Intestinal enteroid maintenance medium (IEMM) consisted of ADF+++, 1×B27 supplement, 1×N2 supplement, 1.25 mM N-acetyl cysteine, 10 mM Nicotinamide, 50 ng/mL hEGF, 10 nM Gastrin, 1 μg/mL hR-spondin-1, 100 ng/mL hNoggin, TGF-b type 1 inhibitor A-83-01, 100 μg/mL Primocin, 10 μM P38 MAPK inhibitor SB202190.
Bath 1 Buffer consisted of 1 mM MgCl2, 160 mM NaCl, 4.5 mM KCl, 10 mM HEPES, 10 mM Glucose, 2 mM CaCl2.
Chloride Free Buffer consisted of 1 mM Magnesium Gluconate, 2 mM Calcium Gluconate, 4.5 mM Potassium Gluconate, 160 mM Sodium Gluconate, 10 mM HEPES, 10 mM Glucose.
Bath1 Dye Solution consisted of Bath 1 Buffer, 0.04% Pluronic F127, 20 μM Methyl Oxonol, 30 μM CaCCinh-A01, 30 μM Chicago Sky Blue.
Chloride Free Dye Solution consisted of Chloride Free Buffer, 0.04% Pluronic F127, 20 μM Methyl Oxonol, 30 μM CaCCinh-A01, 30 μM Chicago Sky Blue.
Chloride Free Dye Stimulation Solution consisted of Chloride Free Dye Solution, 10 μM forskolin, 100 μM IBMX, and 300 nM Compound III.
Human intestinal epithelial enteroid cells were obtained from the Hubrecht Institute for Developmental Biology and Stem Cell Research, Utrecht, The Netherlands and expanded in T-Flasks as previously described (Dekkers J F, Wiegerinck C L, de Jonge H R, Bronsveld I, Janssens H M, de Winter-de Groot K M, Brandsma A M, de Jong N W M, Bijvelds M J C, Scholte B J, Nieuwenhuis E E S, van den Brink S, Clevers H, van der Ent C K, Middendorp S and M Beekman J M. A functional CFTR assay using primary cystic fibrosis intestinal organoids. Nat Med. 2013 July; 19(7):939-45).
c. Enteroid Cell Harvesting and Seeding
Cells were recovered in cell recovery solution, collected by centrifugation at 650 rpm for 5 minutes at 4° C., resuspended in TrypLE and incubated for 5 minutes at 37° C. Cells were then collected by centrifugation at 650 rpm for 5 minutes at 4° C. and resuspended in IEMM containing 10 μM ROCK inhibitor (RI). The cell suspension was passed through a 40 μm cell strainer and resuspended at 1×10^6 cells/mL in IEMM containing 10 μM RI. Cells were seeded at 5000 cells/well into multi-well plates and incubated for overnight at 37° C., 95% humidity and 5% CO2 prior to assay.
d. Membrane Potential Dye, Enteroid Assay A
Enteroid cells were incubated with test compound in IEMM for 18-24 hours at 37° C., 95% humidity and 5% CO2. […] Briefly, cells were washed 5 times in Bath 1 Buffer. Bath 1 Dye Solution was added, and the cells were incubated for 25 minutes at room temperature. Following dye incubation, cells were washed 3 times in Chloride Free Dye Solution. Chloride transport was initiated by addition of Chloride Free Dye Stimulation Solution and the fluorescence signal was read for 15 minutes. […] Chloride transport was then expressed as a percentage of the chloride transport following treatment with 3 μM N-[(6-amino-2-pyridyl)sulfonyl]-6-(3-fluoro-5-isobutoxy-phenyl)-2-[(4S)-2,2,4-trimethylpyrrolidin-1-yl]pyridine-3-carboxamide, 3 μM (R)-1-(2,2-difluorobenzo[d][1,3]dioxol-5-yl)-N-(1-(2,3-dihydroxypropyl)-6-fluoro-2-(1-hydroxy-2-methylpropan-2-yl)-1H-indol-5-yl)cyclopropanecarboxamide and 300 nM acute N-[2,4-bis(1,1-dimethylethyl)-5-hydroxyphenyl]-1,4-dihydro-4-oxoquinoline-3-carboxamide triple combination control (% Activity).

| pEC50 (F508del in NIH 3T3 cells) | pEC50 [1] | Emax (F508del in NIH 3T3 cells) [%] | Compound | Ent. A Max Activity (%) [1] |
| --- | --- | --- | --- | --- |
| > 6.00 |  | > 60 | Cc1cccc(C)c1-c1cc2nc(n1)NS(=O)(=O)c1cccc(c1)NC(=O)[C@H]1C[C@H](CN(CCC(C)(C)C)C1)O2 [Compound 11, (3R,7S)-5-(3,3-Dimethylbutyl)-19-(2,6-dimethylphenyl)-2-oxa-15λ^6-thia-5,9,16,18,21-pentaazatetracyclo[15.3.1.13,7.110,14]tricosa-1(21),10(22),11,13,17,19-hexaene-8,15,15-trione] | + (+ is <30%) |
| > 6.00 | 5.52 to 6.00 | > 60 | Cc1cccc(C)c1-c1cc2nc(n1)NS(=O)(=O)c1cccc(c1)NC(=O)[C@H]1C[C@@H](CN(CCC(C)(C)C)C1)O2 [Compound 12, (3S,7S)-5-(3,3-Dimethylbutyl)-19-(2,6-dimethylphenyl)-2-oxa-15λ^6-thia-5,9,16,18,21-pentaazatetracyclo[15.3.1.13,7.110,14]tricosa-1(21),10(22),11,13,17,19-hexaene-8,15,15-trione] | ++ (++ is 30-60%) |
| > 6.00 | > 6.00 | > 60 | Cc1cccc(C)c1-c1cc2nc(n1)NS(=O)(=O)c1cccc(c1)NC(=O)[C@@H]1C[C@@H](CN(CCCCC(C)(C)C)C1)O2 [Compound 21] | ++ (++ is 30-60%) |
| > 6.00 | > 6.00 | > 60 | Cc1cccc(C)c1-c1cc2nc(n1)NS(=O)(=O)c1cccc(c1)NC(=O)[C@@H]1C[C@@H](CN(CCC3CC3)C1)O2 [Compound 28] | ++ (++ is 30-60%) |
| > 6.00 | 4.52 to 5.52 | > 60 | Cc1cccc(C)c1-c1cc2nc(n1)NS(=O)(=O)c1cccc(c1)NC(=O)[C@@H]1C[C@@H](CN(C(=O)NC(C)(C)C)C1)O2 [Compound 44] | +++ (+++ is >60%) |
| > 6.00 | 5.52 to 6.00 | > 60 | Cc1cccc(C)c1-c1cc2nc(n1)NS(=O)(=O)c1cccc(c1)NC(=O)[C@@H]1C[C@@H](CN(C(=O)CC(C)(C)C)C1)O2 [Compound 45] | +++ (+++ is >60%) |

More lines, now with the values behind:

| Compound | pEC50 (F508del in NIH 3T3 cells) | pEC50 [1] | Emax (F508del in NIH 3T3 cells) [%] | Ent. A Max Activity (%) [1] |
| --- | --- | --- | --- | --- |
| Cc1cccc(C)c1-c1cc2nc(n1)NS(=O)(=O)c1cccc(c1)NC(=O)[C@@H]1C[C@@H](CN(C(=O)OCCC(C)C)C1)O2 [Compound 8, 3-Methylbutyl (3S,7R)-19-(2,6-dimethylphenyl)-8,15,15-trioxo-2-oxa-15λ^6-thia-5,9,16,18,21-pentaazatetracyclo[15.3.1.13,7.110,14]tricosa-1(21),10(22),11,13,17,19-hexaene-5-carboxylate] | > 6.00 | > 6.00 |  | +++ (+++ is >60%) |
| Cc1cccc(C)c1-c1cc2nc(n1)NS(=O)(=O)c1cccc(c1)NC(=O)[C@@H]1C[C@@H](CN(C3CCCCC3)C1)O2 [Compound 10, (3S,7R)-5-cyclohexyl-19-(2,6-dimethylphenyl)-2-oxa-15λ^6-thia-5,9,16,18,21-pentaazatetracyclo[15.3.1.13,7.110,14]tricosa-1(21),10(22),11,13,17,19-hexaene-8,15,15-trione] | > 6.00 | 5.52 to 6.00 |  | ++ (++ is 30-60%) |
| Cc1cccc(C)c1-c1cc2nc(n1)NS(=O)(=O)c1cccc(n1)NC(=O)C1CC(CN(CCC(C)(C)C3CC3)C1)O2 (centres unmarked) [Compound 15, 5-(3-Cyclopropyl-3-methylbutyl)-19-(2,6-dimethylphenyl)-2-oxa-15λ^6-thia-5,9,16,18,21,22-hexaazatetracyclo[15.3.1.13,7.110,14]tricosa-1(21),10,12,14(22),17,19-hexaene-8,15,15-trione] | > 6.00 | > 6.00 | > 60 | ++ (++ is 30-60%) |
| Cc1cccc(C)c1-c1cc2nc(n1)NS(=O)(=O)c1cccc(c1)NC(=O)[C@@H]1C[C@@H](CN(CC(C3CC3)C3CC3)C1)O2 [Compound 24] | > 6.00 | > 6.00 | > 60 | ++ (++ is 30-60%) |
| Cc1cccc(C)c1-c1cc2nc(n1)NS(=O)(=O)c1cccc(c1)NC(=O)[C@@H]1C[C@@H](CN(CC34CC(C3)C4)C1)O2 [Compound 25] | > 6.00 | > 6.00 | > 60 | ++ (++ is 30-60%) |
| Cc1cccc(C)c1-c1cc2nc(n1)NS(=O)(=O)c1cccc(c1)NC(=O)[C@@H]1C[C@@H](CN(CCC3(C(F)(F)F)CC3)C1)O2 [Compound 27] | > 6.00 | > 6.00 | > 60 | +++ (+++ is >60%) |
| Cc1cccc(C)c1-c1cc2nc(n1)NS(=O)(=O)c1cccc(c1)NC(=O)[C@@H]1C[C@@H](CN(CC3CC3)C1)O2 [Compound 30] | > 6.00 | 5.52 to 6.00 | > 60 | ++ (++ is 30-60%) |
| Cc1cccc(C)c1-c1cc2nc(n1)NS(=O)(=O)c1cccc(c1)NC(=O)[C@@H]1C[C@@H](CN(C(=O)OCCF)C1)O2 [Compound 33] | > 6.00 | 5.52 to 6.00 | > 60 | ++ (++ is 30-60%) |
| Cc1cccc(C)c1-c1cc2nc(n1)NS(=O)(=O)c1cccc(c1)NC(=O)[C@H]1C[C@@H](CN(C(=O)NC(C)(C)C)C1)O2 [Compound 42] | 4.52 to 5.52 |  | > 60 | + (+ is <30%) |
| Cc1cccc(C)c1-c1cc2nc(n1)NS(=O)(=O)c1cccc(c1)NC(=O)[C@H]1C[C@H](CN(C(=O)NC(C)(C)C)C1)O2 [Compound 43] | 4.52 to 5.52 |  | > 60 | + (+ is <30%) |
